Laboratory results as given in patent publication US20250034165A1, “COMPOUND CONTAINING CYCLOALKYL OR HALOALKYL” (CHIA TAI TIANQING PHARMACEUTICAL GROUP CO., LTD., priority 2021, published 2025).

Legend:
[1] = target: EGFR (d746-750 (d19)/T790M) (Homo sapiens (Human), UniProt P00533, DEL746-750/T790M); assay: Inhibitory activity for EGFR (d746-750 (d19)/T790M) kinase; type: biochemical; settings: ATP 5 μM
In short: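 Recombinant EGFR d746-750/T790M (0.003 ng/μL final) preincubated 30 min with compound (10 to 0.0024 nM, 4-fold steps), then 5 μM ATP and 0.1 μM ULight-poly GT added for 2 h at room temperature. EDTA stop, Eu-anti-phosphotyrosine TR-FRET read (665 nm); IC50 by four-parameter fit.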

[2] = target: EGFR (d746-750/T790M/C797S) (Homo sapiens (Human), UniProt P00533, C797S/DEL746-750/T790M); assay: Inhibitory activity for EGFR (d746-750/T790M/C797S) kinase; type: biochemical; settings: ATP 5 μM; read-out: EGFR(d19/T790M/C797S) (IC50)
In short: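 EGFR d746-750/T790M/C797S (0.03 ng/μL final) preincubated 30 min with compound (10 nM–0.0024 nM, 4-fold, 7 points). Reaction with 5 μM ATP and 0.1 μM ULight-poly GT, 2 h at room temperature; EDTA stop, Eu-anti-phosphotyrosine TR-FRET read at 665 nm, IC50 by four-parameter fit.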

[3] = tested on: BAF3-EGFR (L858R/T790M/C797S) cells; assay: Inhibition of proliferation of BAF3-EGFR (L858R/T790M/C797S) cells, CCK-8; type: cell-based; settings: Ba/F3 EGFR, 72 h, read-out: BAF3(EGFR T790M L858R C797S) cell inhibitory activity IC50
In short: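 BaF3 EGFR L858R/T790M/C797S cells seeded at 1.5×10^5 cells/mL in RPMI + 10% FBS, 37 °C, compound added after overnight, duplicates. Viability by CCK-8; % inhibition vs untreated and blank, IC50 by four-parameter fit.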

[4] = tested on: PC-9 EGFR-Del19-T790M-C797S cells; assay: Inhibition of proliferation of PC-9-EGFR (Del19 T790M C797S) cells, CCK-8; type: cell-based; settings: 72 h, read-out: PC-9-EGFR (Del19 T790M C797S) cell inhibitory activity IC50
In short: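 Cells seeded at 2×10^4 cells/mL were treated 72 h with compound at 1000 nM-0.06 nM final, in replicate wells. CCK-8 absorbance at 450 nm after 2 h gave inhibition rate relative to negative control and blank. IC50 from four-parameter fit against log concentration.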

[5] = In vitro stability in liver microsomes; type: in vitro ADME; settings: Human liver microsome
Procedure: 300 μL of the final incubation system contains 30 μL of liver microsomes (protein concentration: 0.15 mg/mL), 30 μL of NADPH+MgCl2, 3 μL of the test compound (in acetonitrile), and 237 μL of PBS buffer (pH 7.4). The proportion of the organic solvent (acetonitrile) was 1%. Samples were prepared in duplicate of 0.3 mL for each species (e.g., human or mouse liver microsomes). Tubes each containing 270 μL of a mixed solution of substrate and enzyme […] were pre-incubated at 37° C. for 5 min. 30 μL of NADPH+MgCl2 was added and the mixture was mixed. 50 μL of the mixture was taken at 0 min, 15 min, 30 min, and 60 min, and 300 μL of glacial acetonitrile containing an internal standard was added to terminate the reaction.
50 μL of the incubated sample was added with 300 μL of glacial acetonitrile containing an internal standard (20 ng/mL diazepam) for precipitation. The mixture was vortexed for 5 min, and centrifuged (12,000 rpm, 4° C.) for 10 min. 75 μL of supernatant was taken and diluted with 75 μL of ultrapure water. After being homogeneously mixed, 0.5 μL of the resulting sample was injected for analysis.

[6] = In vivo pharmacokinetics in ICR mice; settings: mouse, plasma, PO, 10 mg/kg intragastric; for AUC(0-t): read-out: AUC(0-t); for Cmax: read-out: Cmax; for MRT last: read-out: MRT(0-t); for Tmax: read-out: Tmax; for half-life: read-out: T½ (converted)
Procedure: The animals to be tested (ICR mice) were fasted for 12 h before administration and food was provided 4 h after administration, and water was freely drunk before and after the experiment and during the experiment.
After intragastric administration, about 0.1 mL of blood was collected from the orbit at 0 min, 15 min, 30 min, 1 h, 2 h, 4 h, 6 h, 8 h, 10 h, and 24 h. After anticoagulation with EDTA-K2, blood samples were transferred to a centrifuge within 30 min, and centrifuged at 4000 rpm for 10 min at 4° C. to separate the plasma. All the plasma samples were collected and immediately stored at −20° C. for testing.
300 μL of acetonitrile solution containing an internal standard ([…] diazepam) was added to 20 μL of the plasma sample to be tested and a standard curve sample. The mixture was shaken and homogeneously mixed for 5 min, and centrifuged at 12,000 rpm for 10 min. 70 μL of supernatant was taken and diluted with 70 μL of ultrapure water. After being mixed well, 2 μL of the resulting sample was subjected to LC/MS/MS, and a chromatogram was recorded.

[7] = tested on: BAF3-EGFR (del19/T790M/C797S) cells; assay: Inhibition of proliferation of BAF3-EGFR (Del19/T790M/C797S) cells, CCK-8; type: cell-based; settings: Ba/F3 EGFR-Del19/T790M/C797S, 72 h, read-out: BAF3(EGFR T790M Del19 C797S) cell inhibitory activity IC50
Procedure: A flask of BAF3-EGFR (del19/T790M/C797S) cells in the logarithmic growth phase and good conditions was taken, and the cells were collected and added to a centrifuge tube. 20 μL of cells were taken and counted, and the required number of cells (mL) was pipetted and centrifuged at 1200 rpm for 3 min. The supernatant was discarded, and an appropriate amount of plating medium (RPMI medium+10% FBS) was added to adjust the cell density to 1.0×10^5 cells/mL. The cells were seeded on a 96-well plate at 100 μL/well using a multi-channel pipette and cultured in a cell incubator at 37° C., 5% CO2 with saturated humidity. After overnight incubation, compounds were loaded using a nanoliter pipettor, 2 duplicate wells were set for each concentration, and cells without compound added were used as negative controls.
Inhibition rate (%)=(mean value of negative control group-mean value of experimental group)/(mean value of negative control group−mean value of blank group)×100%.
A dose-response curve was fitted by four-parameter analysis, with the logarithm of compound concentration serving as abscissa and inhibition rate serving as ordinate, such that IC50 was calculated.

Chain of EGFR (d746-750/T790M/C797S) (P00533 other isoform, or with tags, fused parts or gaps T790M/C797S/del 1-694/del 746-750 limits assumed): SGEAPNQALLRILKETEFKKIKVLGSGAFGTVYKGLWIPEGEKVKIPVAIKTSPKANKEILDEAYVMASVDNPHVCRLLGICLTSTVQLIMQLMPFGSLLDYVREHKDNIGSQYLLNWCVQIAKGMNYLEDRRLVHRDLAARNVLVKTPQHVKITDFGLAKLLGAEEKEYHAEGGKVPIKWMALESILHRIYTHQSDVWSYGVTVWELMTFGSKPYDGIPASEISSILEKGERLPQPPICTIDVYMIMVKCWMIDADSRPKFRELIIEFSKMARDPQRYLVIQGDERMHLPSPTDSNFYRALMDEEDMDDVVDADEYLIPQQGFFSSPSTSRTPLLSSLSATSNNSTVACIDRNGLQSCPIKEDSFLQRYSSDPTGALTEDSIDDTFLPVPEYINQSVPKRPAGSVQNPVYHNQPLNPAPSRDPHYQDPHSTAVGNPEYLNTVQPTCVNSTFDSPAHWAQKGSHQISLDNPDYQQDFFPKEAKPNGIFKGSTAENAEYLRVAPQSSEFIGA
Chain of EGFR (d746-750 (d19)/T790M) (P00533 other isoform, or with tags, fused parts or gaps T790M/del 1-668/del 746-750 limits assumed): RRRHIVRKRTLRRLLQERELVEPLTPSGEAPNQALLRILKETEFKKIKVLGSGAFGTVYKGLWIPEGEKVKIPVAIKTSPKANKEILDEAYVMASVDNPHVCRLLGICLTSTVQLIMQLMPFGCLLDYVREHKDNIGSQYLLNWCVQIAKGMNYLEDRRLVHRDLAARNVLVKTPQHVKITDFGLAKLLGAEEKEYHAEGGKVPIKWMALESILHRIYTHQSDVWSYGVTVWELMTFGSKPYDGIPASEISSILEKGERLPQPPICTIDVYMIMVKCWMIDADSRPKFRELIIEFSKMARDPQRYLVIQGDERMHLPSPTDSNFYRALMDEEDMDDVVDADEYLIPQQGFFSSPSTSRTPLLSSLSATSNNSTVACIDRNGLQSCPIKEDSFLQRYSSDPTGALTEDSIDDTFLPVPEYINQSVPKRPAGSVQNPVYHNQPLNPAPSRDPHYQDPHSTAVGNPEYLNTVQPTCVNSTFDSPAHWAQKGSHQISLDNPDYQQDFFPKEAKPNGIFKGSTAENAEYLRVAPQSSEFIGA

Structure (SMILES) | IC50 [1] [nM] | IC50 [2] [nM] | IC50 [3] [nM] | IC50 [4] [nM] | Stability in liver microsomes (residual %, T = 60 min) [5] | also measured
Cc1cc2cc(n1)-c1cnn(C)c1OCCC[C@@H](C1CC1)CN1/C(=N/C2=O)Nc2cc(N[C@@H](C)CN(C)C)ccc21 [Example 68] |  |  |  |  | 78.57% | AUC(0-inf) [6]: 1960 ng·h/mL; AUC(0-t) [6]: 1950 ng·h/mL; Cmax [6]: 148 ng/mL; MRT last [6]: 7.54 h; Tmax [6]: 4 h; half-life [6]: 3.04 h
Cc1cc2cc(n1)-c1cnn(C)c1OCCC[C@@H](C1CC1)CN1/C(=N/C2=O)Nc2cc(NCCCN3CCCCC3)ccc21 [Example 71] |  |  |  |  | 82.82% | AUC(0-inf) [6]: 1680 ng·h/mL; AUC(0-t) [6]: 1620 ng·h/mL; Cmax [6]: 138 ng/mL; MRT last [6]: 7.85 h; Tmax [6]: 6 h; half-life [6]: 4.5 h
Cc1cc2cc(n1)-c1cnn(C)c1OCCC[C@@H](C1CC1)CN1/C(=N/C2=O)Nc2ccc(N[C@H]3CC[C@@H](N(C)C)CC3)cc21 [Example 99] | 0.091 |  | < 5 | < 50 | 84.54% | 
Cc1cc2cc(n1)-c1cnn(C)c1OCCC[C@@H](C1CC1)CN1/C(=N/C2=O)Nc2ccc(N[C@H]3CC[C@H](N(C)C)CC3)cc21 [Example 100] | 0.092 |  | < 5 | < 50 | 82.55% | 
[2H]C([2H])([2H])N(C[C@H](C)Nc1ccc2c(c1)N/C1=N/C(=O)c3cc(C)nc(c3)-c3cnn(C)c3OCCC[C@@H](C3CC3)CN12)C([2H])([2H])[2H] [Example 124] |  | 0.12 |  |  | 77.10% | 
Cc1cc2cc(n1)-c1cnn(C)c1OCCC[C@@H](C1CC1)CN1/C(=N/C2=O)Nc2cc(N[C@H]3C[C@@H](N(C)C)C3)ccc21 [Example 125] |  | 0.08 |  |  | 93.95% | 
Cc1cc2cc(n1)-c1cnn(C)c1OCCC[C@@H](C1CC1)CN1/C(=N/C2=O)Nc2cc(N[C@H]3C[C@H](N(C)C)C3)ccc21 [Example 126] |  | 0.073 | < 5 | < 50 | 83.66% | 
Cc1cc2cc(n1)-c1cnn(C)c1OCCC[C@@H](C1CC1)CN1/C(=N/C2=O)Nc2ccc(N[C@H]3C[C@@H](N(C)C)C3)cc21 [Example 127] | 0.12 |  |  | < 50 | 75.00% | 
Cc1cc2cc(n1)-c1cnn(C)c1OCCC[C@@H](C1CC1)CN1/C(=N/C2=O)Nc2cc(N[C@H]3CC[C@@H](N(C)C)C3)ccc21 [Example 131] |  | 0.08 | < 5 | < 50 | 95.64% | 
Cc1cc2cc(n1)-c1cnn(C)c1OCCC[C@@H](C1CC1)CN1/C(=N/C2=O)Nc2cc(N[C@@H]3CC[C@H](N(C)C)C3)ccc21 [Example 133] |  | 0.097 | < 5 |  | 95.34% | 
Cc1cc2cc(n1)-c1cnn(C)c1OCCC[C@@H](C1CC1)CN1/C(=N/C2=O)Nc2ccc(N[C@@H]3CC[C@H](N(C)C)C3)cc21 [Example 134] |  | 0.069 | < 5 |  | 65.19% | 

Further lines, with some results ahead:

IC50 [1] [nM] | IC50 [2] [nM] | IC50 [3] [nM] | IC50 [4] [nM] | Stability in liver microsomes (residual %, T = 60 min) [5] | Structure (SMILES) | also measured
0.014 | 0.023 | < 5 | < 50 | 94.30% | Cc1cc2cc(n1)-c1cnn(C)c1OCCC[C@@H](C1CC1)CN1/C(=N/C2=O)Nc2cc(NC3CCN(C)CC3)ccc21 [Example 10] | 
0.012 | 0.02 |  |  | 73.66% | Cc1cc2cc(n1)-c1cnn(C)c1OCCC[C@@H](C1CC1)CN1/C(=N/C2=O)Nc2ccc(NC3CCN(C)CC3)cc21 [Example 20] | 
0.0098 | 0.015 |  |  | 83.39% | Cc1cc2cc(n1)-c1cnn(C)c1OCCC[C@@H](C1CC1)CN1/C(=N/C2=O)Nc2cc(NC3CN(C)C3)ccc21 [Example 33] | 
0.013 | 0.04 | < 5 |  | 81.11% | Cc1cc2cc(n1)-c1cnn(C)c1OCCC[C@@H](C1CC1)CN1/C(=N/C2=O)Nc2cc(NCCCN3CCCC3)ccc21 [Example 70] | 
0.011 | 0.013 | < 5 |  | 64.73% | Cc1cc2cc(n1)-c1cnn(C)c1OCCC[C@@H](C1CC1)CN1/C(=N/C2=O)Nc2cc(NCCN3CCCC3)ccc21 [Example 72] | IC50 [7]: < 1 nM
 | 0.063 | < 5 | < 50 | 71.24% | Cc1cc2cc(n1)-c1cnn(C)c1OCCC[C@@H](C1CC1)CN1/C(=N/C2=O)Nc2ccc(NC(=O)CCN(C)C)cc21 [Example 112] | 
 | 0.065 |  |  | 92.24% | Cc1cc2cc(n1)-c1cnn(C)c1OCCC[C@@H](C1CC1)CN1/C(=N/C2=O)Nc2cc(N[C@@H]3CC[C@@H](N(C)C)C3)ccc21 [Example 129] | 
 | 0.056 | < 5 |  | 56.81% | Cc1cc2cc(n1)-c1cnn(C)c1OCCC[C@@H](C1CC1)CN1/C(=N/C2=O)Nc2ccc(N[C@@H]3CC[C@@H](N(C)C)C3)cc21 [Example 130] | 
 | 0.066 | < 5 | < 50 | 63.76% | Cc1cc2cc(n1)-c1cnn(C)c1OCCC[C@@H](C1CC1)CN1/C(=N/C2=O)Nc2ccc(N[C@H]3CC[C@@H](N(C)C)C3)cc21 [Example 132] | 
 | 0.062 | < 5 | < 50 | 97.30%. | Cc1cc2cc(n1)-c1cnn(C)c1OCCC[C@@H](C1CC1)CN1/C(=N/C2=O)Nc2cc(N[C@H]3CC[C@H](N(C)C)C3)ccc21 [Example 135] | 
